# Test results reported in patent publication US20130143891A1, “Methods for Treating Methotrexate-Resistant Disorders with 10-Propargyl-10-Deazaaminopterin” (ALLOS THERAPEUTICS, INC., priority 2010, published 2013).
# Like-named read-outs stand apart in the source and are kept apart here.
# Legend:
# [1] = tested on: DU-PDX cells; experiment: Cytotoxicity in 10-propargyl-10-deazaminopterin-adapted DU145 cells; assay type: cell-based, human
# Description: (§1) All the data generated was the result of three separate experiments performed in duplicate. Cell viability was determined using the MTT assay, which was carried out as described previously (Hansen, 1989). Briefly, cells were seeded in 96-well plates at a density of 2×10^3 cells well^−1. Cells were incubated for 120 hours and then 0.4 mg ml^−1 of MTT dye (3-[4,5-dimethylthiazol-2-yl]-2,5-diphenyltetrazolium bromide was added for 4 hours at 37° C. The monolayer was suspended in 0.1 ml of DMSO and the absorbance at 560 nm was measured using a microplate reader. Positive and negative controls included wells with untreated cells or medium containing MTT with no cells, respectively. The conversion of yellow water-soluble tetrazolium MTT into purple insoluble formazan is catalyzed by mitochondrial dehydrogenases and is used to estimate the number of viable cells. The control value corresponding to untreated cells was taken as 100% and the viability of treated samples was expressed as a percentage of the control. IC50 values were determined as concentrations that reduced cell viability by 50%.
# (§2) For single agent studies, cells were seeded and allowed to settle for 24 hours prior to treatment with increasing concentrations of 10-propargyl-10-deazaminopterin for 72 h. After incubation, the cells were allowed to recover in compound-free medium for 48 h, prior to determination of growth inhibition using the MTT assay.
# (§3) To characterize the predictive factors of 10-propargyl-10-deazaminopterin antiproliferative effects, the cell lines DU-PDX and HEP-PDX were developed from parental DU145 and HEP2 cells, respectively, by exposure to stepwise increasing concentrations of 10-propargyl-10-deazaminopterin over a period of 6 months.
# [2] = tested on: HT29 colon cancer cell line; experiment: MTT cell cytotoxicity assay, HT29; assay type: cell-based, human; conditions: Homo sapiens, HT-29, 72 h, 72 h exposure, read-out: Cytotoxicity (IC50s)
# Description: (§4) A panel of colon (HT29, HCT116, COLO205, HCC2998), breast (MCF7, MDA-MB-435), lung (HOP62, HOP92), ovarian (OVCAR3, IGROV1), prostate (DU145, PC3), and head and neck (SCC61, HEP2, SQ20B) human cancer cell lines was purchased from the ATCC (Rockville, Md.) and National Cancer Institute collections. […] All the data generated was the result of three separate experiments performed in duplicate. Cell viability was determined using the MTT assay, which was carried out as described previously (Hansen, 1989). Briefly, cells were seeded in 96-well plates at a density of 2×10^3 cells well^−1. […] The monolayer was suspended in 0.1 ml of DMSO and the absorbance at 560 nm was measured using a microplate reader. Positive and negative controls included wells with untreated cells or medium containing MTT with no cells, respectively. The conversion of yellow water-soluble tetrazolium MTT into purple insoluble formazan is catalyzed by mitochondrial dehydrogenases and is used to estimate the number of viable cells.
# [3] = tested on: HEP-PDX cells; experiment: Cytotoxicity in 10-propargyl-10-deazaminopterin-adapted HEP2 cells; assay type: cell-based, human
# Description: as §1, §2, §3
# [4] = tested on: OVCAR3 ovarian cancer cell line; experiment: MTT cell cytotoxicity assay, OVCAR3; assay type: cell-based, human; conditions: Homo sapiens, OVCAR-3, 72 h, 72 h exposure, read-out: Cytotoxicity (IC50s)
# Description: as §4
# [5] = tested on: HOP92 NSCLC cell line; experiment: MTT cell cytotoxicity assay, HOP92; assay type: cell-based, human; conditions: Homo sapiens, HOP-92, 72 h, 72 h exposure, read-out: Cytotoxicity (IC50s)
# Description: as §4
# [6] = tested on: DU145 prostate cancer cell line; experiment: MTT cell cytotoxicity assay, DU145; assay type: cell-based, human; conditions: naïve/parental, 72 h exposure, read-out: Cytotoxicity (IC50s)
# Description: as §4
# [7] = tested on: SCC61 head and neck cancer cell line; experiment: MTT cell cytotoxicity assay, SCC61; assay type: cell-based, human; conditions: Homo sapiens, 72 h, 72 h exposure, read-out: Cytotoxicity (IC50s)
# Description: as §4
# [8] = tested on: IGROV1 ovarian cancer cell line; experiment: MTT cell cytotoxicity assay, IGROV1; assay type: cell-based, human; conditions: 72 h exposure, read-out: Cytotoxicity (IC50s)
# Description: as §4
# [9] = tested on: HCC2998 colon cancer cell line; experiment: MTT cell cytotoxicity assay, HCC2998; assay type: cell-based, human; conditions: Homo sapiens, HCC 2998, 72 h, 72 h exposure, read-out: Cytotoxicity (IC50s)
# Description: as §4
# [10] = tested on: MDA-MB-435 melanoma cell line; experiment: MTT cell cytotoxicity assay, MDA-MB-435; assay type: cell-based, human; conditions: Homo sapiens, MDA-MB-435, 72 h, MDA-MB-435 (melanoma; MDA435 in table), 72 h exposure; read-out: Cytotoxicity (IC50s)
# Description: as §4
# [11] = tested on: COLO205 colon cancer cell line; experiment: MTT cell cytotoxicity assay, COLO205; assay type: cell-based, human; conditions: 72 h exposure, read-out: Cytotoxicity (IC50s)
# Description: as §4
# [12] = tested on: HEP2 head and neck cancer cell line; experiment: MTT cell cytotoxicity assay, HEP2; assay type: cell-based, human; conditions: 72 h exposure, read-out: Cytotoxicity (IC50s)
# Description: as §4
# [13] = tested on: HOP62 NSCLC cell line; experiment: MTT cell cytotoxicity assay, HOP62; assay type: cell-based, human; conditions: Homo sapiens, HOP-62, 72 h, 72 h exposure, read-out: Cytotoxicity (IC50s)
# Description: as §4
# [14] = tested on: MCF7 breast cancer cell line; experiment: MTT cell cytotoxicity assay, MCF7; assay type: cell-based, human; conditions: Homo sapiens, MCF7, 72 h, 72 h exposure, read-out: Cytotoxicity (IC50s)
# Description: as §4
# [15] = tested on: PC3 prostate cancer cell line; experiment: MTT cell cytotoxicity assay, PC3; assay type: cell-based, human; conditions: Homo sapiens, 72 h, 72 h exposure, read-out: Cytotoxicity (IC50s)
# Description: as §4
# [16] = tested on: HCT116 colon cancer cell line; experiment: MTT cell cytotoxicity assay, HCT116; assay type: cell-based, human; conditions: Homo sapiens, HCT-116, 72 h, 72 h exposure, read-out: Cytotoxicity (IC50s)
# Description: as §4
# [17] = tested on: SQ20B head and neck cancer cell line; experiment: MTT cell cytotoxicity assay, SQ20B; assay type: cell-based, human; conditions: Homo sapiens, SQ20B, 72 h, 72 h exposure, read-out: Cytotoxicity (IC50s)
# Description: as §4
# [18] = tested on: DU-MTX cells; experiment: Cytotoxicity in methotrexate-adapted DU145 cells; assay type: cell-based, human
# Description: as §1, §2
# To compare the mechanisms of 10-propargyl-10-deazaminopterin and methotrexate resistance, the cell lines DU-MTX and HEP-MTX were developed from parental DU145 and HEP2 cells by exposure to stepwise increasing concentrations of methotrexate.
# [19] = tested on: 15 human solid tumor cell lines; experiment: Cytotoxicity across panel of 15 human solid tumor cell lines; assay type: cell-based
# Description: A panel of colon (HT29, HCT116, COLO205, HCC2998), breast (MCF7, MDA-MB-435), lung (HOP62, HOP92), ovarian (OVCAR3, IGROV1), prostate (DU145, PC3), and head and neck (SCC61, HEP2, SQ20B) human cancer cell lines was purchased from the ATCC (Rockville, Md.) and National Cancer Institute collections. Cells were grown as monolayers in RPMI medium supplemented with 10% fetal calf serum, 2 mM glutamine, 100 units ml^−1 penicillin and […] streptomycin.
# as §1, §2
# [20] = tested on: DHFR; experiment: Western blot of DHFR protein expression; assay type: cell-based, human
# Description: Cells were lysed in buffer containing 50 mM HEPES (pH 7.6), 150 mM NaCl, 1% Triton X-100, 2 mM sodium vanadate, 100 mM NaF, and 0.4 mg·ml^−1 phenylmethylsulfonyl fluoride. Equal amounts of protein (20-50 μg/lane) were subjected to SDS-PAGE and transferred to nitrocellulose membranes. Membranes were probed with anti-cleaved PARP, anti-cleaved caspase 3, anti-caspase 9 (Cell Signaling, Saint Quentin Yvelines, France), anti-DHFR (Abcam, France), anti-β-actin (Sigma Aldrich, Saint-Quentin Fallavier, France) specific primary antibodies followed by peroxidase-linked secondary antibodies and visualization by chemiluminescence.
SMILES,IC50 [2],IC50 [4],IC50 [5],"IC50 ([6]; Homo sapiens, DU-145, 72 h)",IC50 [7],"IC50 ([8]; Homo sapiens, IGROV-1, 72 h)",IC50 [9],IC50 [10],"IC50 ([11]; Homo sapiens, COLO 205, 72 h)","IC50 ([12]; Homo sapiens, HEp-2, 72 h)",IC50 [13],IC50 [14],IC50 [15],IC50 [16],IC50 [17],other results
"O=c1[nH]cc(F)c(=O)[nH]1 [5-FU, 5-fluorouracil]",3000 nM,31000 nM,18000 nM,7000 nM,1200 nM,8000 nM,10000 nM,5000 nM,800 nM,86000 nM,78000 nM,1300 nM,1500 nM,10000 nM,10000 nM,"cross-resistance: cytotoxicity in DU-PDX compared with parental DU145 ([1]; DU-PDX cells, 72 h exposure for pemetrexed and 5-FU): No significant difference; cross-resistance: cytotoxicity in HEP-PDX compared with parental HEP2 ([3]; HEP-PDX cells, 72 h exposure for pemetrexed and 5-FU): No significant difference"
"C#CCC(Cc1cnc2nc(N)nc(N)c2n1)c1ccc(C(=O)N[C@@H](CCC(=O)O)C(=O)O)cc1 (mixture of isomers) [Pralatrexate, (2S)-2-[[4-[(1RS)-1-[(2,4-diaminopteridin-6-yl)methyl]but-3-ynyl]benzoyl]amino]pentanedioic acid]",,,,,,< 100 nM,,,≥ 9000 nM,< 100 nM,,,,,,"less sensitive (resistant) than parental cells ([1]; DU-PDX versus parental DU145): more than 200 fold; change in cytotoxicity with and without verapamil and cyclosporine A ([1]; DU-PDX, 30 μM verapamil and 3 μM cyclosporin A concomitantly for 72 hours): No changes were observed; less sensitive (resistant) than parental cells ([3]; HEP-PDX versus parental HEP2): more than 200 fold; change in cytotoxicity with and without verapamil and cyclosporine A ([3]; HEP-PDX, 30 μM verapamil and 3 μM cyclosporin A concomitantly for 72 hours): No changes were observed; IC50 ([6]; listed as 10-propargyl-10-deazaminopterin): 10 nM; IC50 lower than that of methotrexate ([18]; DU-MTX cells): approximately 10 fold; IC50 ([18]; Homo sapiens, DU-145, DU-MTX cells (FIG. 3), read-out: IC50 for the methotrexate adapted DU-145 cell lines): 20 nM; IC50 [8]: 80 nM; IC50 [11]: 9000 nM; IC50 ([19]; 6 of the 15 human cancer cell lines, read-out: IC50 in the 6 relatively resistant of 15 cell lines): > 9000 nM; IC50s on average lower than those observed for methotrexate ([19]; average over the panel): ~10 fold; IC50 ([19]; nine of the 15 human cancer cell lines, read-out: IC50 in the nine sensitive of 15 cell lines): < 100 nM; IC50 [12]: 50 nM; DHFR protein expression after prolonged exposure ([20]; 6 months exposure, HEP-PDX cells): not after prolonged (6 months) exposure; DHFR protein expression after short exposure ([20]; 24 hour exposure (FIG. 6)): slightly increased"
"Nc1nc2[nH]cc(CCc3ccc(C(=O)N[C@@H](CCC(=O)O)C(=O)O)cc3)c2c(=O)[nH]1 [Pemetrexed, pemetrexed]",23 nM,25 nM,20 nM,48 nM,15 nM,300000 nM,1500 nM,300000 nM,24 nM,100 nM,29 nM,22 nM,2700 nM,350000 nM,25 nM,cross-resistance: cytotoxicity in DU-PDX compared with parental DU145 [1]: only slightly less cytotoxic; cross-resistance: cytotoxicity in HEP-PDX compared with parental HEP2 [3]: only slightly less cytotoxic
